# Earlier results in patent US20060008512A1, “Composition and methods for improved animal performance” (priority 2004, published 2006).
# Like-named read-outs stand apart in the source and are kept apart here.
# What was measured:
# [1] = test system: male Peterson broiler breeder chicks; conditions: 0.1% dietary, cited from earlier work
# suckling rat pups = conditions: 0.1% solution in mother's drinking water, birth to 24 days, cited from earlier work
# male rats [2] = conditions: treated from birth to day 25, cited from earlier work
# [3] = test system: growing cockerel and pullet chickens; conditions: 10 mg/kg dietary thyroid hormone; cited from earlier work
# broiler chickens = conditions: finishing-phase T3 administration alone; cited from earlier work
# pigs [4] = conditions: 1,000 mg betaine/kg diet; cited from earlier work
# dogs = conditions: approximately 5 mg biotin/10 kg body weight for 3 to 5 weeks; cited from earlier work
# laying hens = conditions: 20 to 40 mg corticosterone/kg diet; cited from earlier work
# [5] = test system: porcine thyroid follicles; conditions: cited from earlier work
# [6] = test system: female Sprague-Dawley rats; conditions: fifteen days, cited from earlier work; for Concentration of reverse T3: control 71.7; for Concentration of T3: control 670
# humans = conditions: daily doses of 100 to 200 mg iodide (from potassium iodide) per person; cited from earlier work
# [7] = test system: isolated porcine thyroid follicles; conditions: 10 microM of iodide, comparison value; cited from earlier work
# White Leghorn hens = conditions: single i.m. injection releasing 60 mcg/kg body weight per day for 30 days, cited from earlier work
# pigs [8] = conditions: 5 or 8 mg iodide/kg feed for 3 months; cited from earlier work
# male rats [9] = conditions: 200 mg/kg body weight i.v.; blood 30-240 minutes later; cited from earlier work
# [10] = serum adjusted to 10 mM sodium salicylate; cited from earlier work
# cockerels = conditions: fed from 1 day of age; by the 14th week; cited from earlier work
# neonatal male rats = conditions: fed from birth to 24 days of age, cited from earlier work
# [11] = test system: young male Nile tilapia fish; conditions: 100 or 150 mg thiouracil/kg diet for 40 days; by 98 days; cited from earlier work
# broiler breeder hen = conditions: 50 mg/kg feed; days 11 and 12; cited from earlier work
compound,measurement,setting,value
CCCc1cc(=O)[nH]c(=S)[nH]1 [6-propyl-2-thiouracil],Increase in testis weight,[1]; 8 to 14 or 10 to 16 weeks of age,about 35%
same,Testis weight,"[1]; 8 to 14 weeks of age, control 20.0 g",27.7 g
same,Testis weight,"[1]; 10 to 16 weeks of age, control 20.0 g",27.7 g
same,Increase in mean testis weight at 28 weeks,[1]; fed from 6 to 12 weeks of age,96%
same,Mean testis weight at 28 weeks,"[1]; fed from 6 to 12 weeks of age, control 20.0 g",39.3 g
same,Decline of average Leydig cell volume,suckling rat pups; at 180 days,about 20%
same,Increase in number of Leydig cells per testis,suckling rat pups; at 180 days,69%
same,Decline in number of hCG-binding sites (LH receptors),suckling rat pups,50%
same,Reduction of LH-stimulated testosterone production in Leydig cells,suckling rat pups,55%
same,Increase of testis weight compared to controls,male rats [2]; at 90 days,40%
same,Increase of testis weight compared to controls,male rats [2]; at 135 days,60%
same,Increase of testis weight compared to controls,male rats [2]; at 160 days,80%
"N[C@@H](Cc1cc(I)c(Oc2ccc(O)c(I)c2)c(I)c1)C(=O)O [T3, 3,5,3′-triiodo-L-thyronine]",Reduction in body weight gain compared to controls,[3],55.24%
same,Reduction in body fat,broiler chickens,17-25%
C[N+](C)(C)CC(=O)O [betaine],Decrease in feed conversion ratio,pigs [4],7.93%
same,Increase in average daily gain,pigs [4],13.20%
O=C(O)CCCC[C@@H]1SC[C@@H]2NC(=O)N[C@@H]21 [biotin],Cases cured,dogs,60%
C[C@]12C[C@H](O)[C@H]3[C@@H](CCC4=CC(=O)CC[C@@]43C)[C@@H]1CC[C@@H]2C(=O)CO [corticosterone],Laying hens with cessation of egg production,laying hens,98%
CCCCC/C=C\C/C=C\C/C=C\CC(I)C1CCCC(=O)O1 (stereo not drawn) [delta-iodolactone],Dose lower than iodide for comparable apoptosis,[5]; 0.05 to 0.5 microM delta-iodolactone,about 40 fold
Cc1cc2c(C(C)C)c(O)c(O)c(C=O)c2c(O)c1-c1c(C)cc2c(C(C)C)c(O)c(O)c(C=O)c2c1O [gossypol acetic acid],Concentration of reverse T3,[6]; 5 mg/kg/day,0.0372 ng/mL
same,Concentration of T3,[6]; 5 mg/kg/day,0.43 ng/mL
same,Concentration of reverse T3,[6]; 10 mg/kg/day,0.0242 ng/mL
same,Concentration of T3,[6]; 10 mg/kg/day,0.359 ng/mL
I [iodide],Protection from radioactive iodide,humans,over 97%
same,Inhibitory effect of iodide on thyroid follicle proliferation,[7],84±2%
same,Rate of apoptosis,[5]; 2 and 20 microM iodide,4-6%
CCNC(=O)[C@@H]1CCCN1C(=O)[C@H](CCCNC(=N)N)NC(=O)[C@H](CC(C)C)NC(=O)[C@@H](CC(C)C)NC(=O)[C@H](Cc1ccc(O)cc1)NC(=O)[C@H](CO)NC(=O)[C@H](Cc1c[nH]c2ccccc12)NC(=O)[C@H](Cc1c[nH]cn1)NC(=O)[C@@H]1CCC(=O)N1 [leuprolide acetate],Body weight,White Leghorn hens,no body weight loss
same,Egg production,White Leghorn hens; second week,3.5%
[I-].[K+] [potassium iodide],Increase of iodine content in adipose tissue,pigs [8],213%
same,Increase of iodine content in fresh muscle,pigs [8],45%
same,Increase of iodine content in heart,pigs [8],124%
same,Increase of iodine content in kidneys,pigs [8],127%
same,Increase of iodine content in liver,pigs [8],207%
O=C([O-])c1ccccc1O.[Na+] [sodium salicylate],Decrease in T3,male rats [9],60%
same,Decrease in plasma T4 level,male rats [9],20%
same,Increase in reverse T3,male rats [9],20%
same,Rise of free dialyzable fraction of T4 in vitro,[10],125%
O=c1cc[nH]c(=S)[nH]1 [thiouracil],Weights of testes relative to controls,cockerels,about 10 times
same,Increase in testis size,neonatal male rats; at 100 days,68%
same,Time for serum T4 and T3 to return to control levels after removal,neonatal male rats,≤ 15 days
same,"Testis weight, gonadosomatic index, Sertoli, germ and Leydig cell numbers higher than control",[11],approximately 100%
Nicarbazin,Hatchability,broiler breeder hen,31%
